{"source": "patent US9776962B2", "about": "“Aromatic compounds with GPR40 agonistic activity” (TAKEDA PHARMACEUTICAL COMPANY LIMITED, priority 2013, dated 2017)", "data": [{"target": "T1, human GPR40 (Homo sapiens, UniProt O14842)", "T1 construct": "expressed in transfected cells", "T1 sequence (O14842 whole entry)": "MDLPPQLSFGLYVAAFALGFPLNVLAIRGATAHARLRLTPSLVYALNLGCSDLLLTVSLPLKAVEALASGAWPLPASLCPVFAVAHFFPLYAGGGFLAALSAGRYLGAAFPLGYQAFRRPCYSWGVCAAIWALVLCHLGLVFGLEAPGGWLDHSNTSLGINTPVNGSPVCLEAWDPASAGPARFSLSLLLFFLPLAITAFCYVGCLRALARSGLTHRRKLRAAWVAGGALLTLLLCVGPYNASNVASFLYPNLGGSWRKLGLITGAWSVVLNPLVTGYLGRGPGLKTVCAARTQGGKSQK", "experiment": "Evaluation of human GPR40 agonist activity with increase in intracellular Ca2+ concentration as an index (FLIPR)", "format": "cell-based", "conditions": "test compound 1 μM; CHO(dhfr−) cells stably expressing human GPR40; 100% = 10 μM compound of Example 153, 0% = DMSO", "in_short": "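CHO(dhfr−) cells stably expressing full-length human GPR40 were loaded with Ca2+ probe for 1 h at room temperature, then given test compound at 1 μM final. Fluorescence was followed on FLIPR, with activity scaled to a reference agonist at 10 μM (100%) and DMSO (0%).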", "units": {"activation at 1 µM": "%"}, "values": [{"compound": "COc1ccc(C(=O)N(CC(C)(C)OC)c2cc(C)ccn2)c(N2CCC(COc3cc(C(CC(=O)O)C4CC4)ccn3)CC2)c1", "note": "(stereo not shown) [Example 164, 3-cyclopropyl-3-(2-((1-(5-methoxy-2-((2-methoxy-2-methylpropyl)(4-methylpyridin-2-yl)carbamoyl)phenyl)piperidin-4-yl)methoxy)pyridin-4-yl)propanoic acid]", "activation at 1 µM": 88}, {"compound": "COc1ccc(C(=O)N(CC(C)(C)F)c2ccccn2)c(N2CCC(COc3cc(C(CC(=O)O)C4CC4)ccn3)CC2)c1", "note": "(stereo not shown) [Example 120, 3-cyclopropyl-3-(2-((1-(2-((2-fluoro-2-methylpropyl)(pyridin-2-yl)carbamoyl)-5-methoxyphenyl)piperidin-4-yl)methoxy)pyridin-4-yl)propanoic acid]", "activation at 1 µM": 100}, {"compound": "COc1ccc(C(=O)N(CC2CCCCC2)c2ccccn2)c(N2CCC(COc3cc(C(CC(=O)O)C4CC4)ccn3)CC2)c1", "note": "(stereo not shown) [Example 195, 3-(2-((1-(2-((cyclohexylmethyl)(pyridin-2-yl)carbamoyl)-5-methoxyphenyl)piperidin-4-yl)methoxy)pyridin-4-yl)-3-cyclopropylpropanoic acid]", "activation at 1 µM": 98}, {"compound": "Cc1cccc(N(CC(C)(C)C)C(=O)c2ccc(Br)cc2N2CCC(COc3cc(C(CC(=O)O)C4CC4)ccn3)CC2)n1", "note": "(stereo not shown) [Example 263, 3-(2-((1-(5-bromo-2-((2,2-dimethylpropyl)(6-methylpyridin-2-yl)carbamoyl)phenyl)piperidin-4-yl)methoxy)pyridin-4-yl)-3-cyclopropylpropanoic acid]", "activation at 1 µM": 94}, {"compound": "COc1ccc(C(=O)N(CC(C)(C)C)c2ccccn2)c(N2CCC(COc3cccc(C(CC(=O)O)C4CC4)c3)C(F)(F)C2)c1", "note": "[Example 281, (3S)-cyclopropyl-3-(3-((1-(2-((2,2-dimethylpropyl)-(pyridin-2-yl)carbamoyl)-5-methoxyphenyl)-3,3-difluoropiperidin-4-yl)methoxy)phenyl)-propanoic acid]", "activation at 1 µM": 92}, {"compound": "CCC(C)(C)CN(C(=O)c1ccc(OC)cc1N1CCC(COc2cc(C(CC(=O)O)C3CC3)ccn2)CC1)c1ccccn1", "note": "(stereo not shown) [Example 149, 3-cyclopropyl-3-(2-((1-(2-((2,2-dimethylbutyl)(pyridin-2-yl)carbamoyl)-5-methoxyphenyl)piperidin-4-yl)methoxy)pyridin-4-yl)propanoic acid]", "activation at 1 µM": 101}, {"compound": "COc1ccc(C(=O)N2CCOCC2c2ccccc2)c(N2CCC(COc3cc(C(CC(=O)O)C4CC4)ccn3)CC2)c1", "note": "(stereo not shown) [Example 200, 3-cyclopropyl-3-(2-((1-(5-methoxy-2-((3-phenylmorpholin-4-yl)carbonyl)phenyl)piperidin-4-yl)methoxy)pyridin-4-yl)propanoic acid]", "activation at 1 µM": 89}, {"compound": "COc1ccc(C(=O)N(CC(F)F)c2ccccn2)c(N2CCC(COc3cc(C(CC(=O)O)C4CC4)ccn3)CC2)c1", "note": "(stereo not shown) [Example 137, 3-cyclopropyl-3-(2-((1-(2-((2,2-difluoroethyl)(pyridin-2-yl)carbamoyl)-5-methoxyphenyl)piperidin-4-yl)methoxy)pyridin-4-yl)propanoic acid]", "activation at 1 µM": 96}, {"compound": "COc1ccc(C(=O)N(CC(F)(F)F)c2cncc(C(F)(F)F)c2)c(N2CCC(COc3cc(C(CC(=O)O)C4CC4)ccn3)CC2)c1", "note": "(stereo not shown) [Example 236, 3-cyclopropyl-3-(2-((1-(5-methoxy-2-((2,2,2-trifluoroethyl) (5-(trifluoromethyl)pyridin-3-yl)carbamoyl)-phenyl)piperidin-4-yl)methoxy)pyridin-4-yl)propanoic acid]", "activation at 1 µM": 91}, {"compound": "COc1ccc(C(=O)N(c2ccccn2)C(C)C)c(N2CCC(COc3cc(C(CC(=O)O)C4CC4)ccn3)CC2)c1", "note": "(stereo not shown) [Example 146, 3-cyclopropyl-3-(2-((1-(5-methoxy-2-(propan-2-yl(pyridin-2-yl)carbamoyl)phenyl)piperidin-4-yl)methoxy)pyridin-4-yl)propanoic acid]", "activation at 1 µM": 82}, {"compound": "COCC(CC(=O)O)c1cccc(OCC2CCN(c3cc(OC)ccc3C(=O)N(CC(C)(C)C)c3cccc(C)n3)CC2)c1", "note": "(stereo not shown) [Example 276, 3-(3-((1-(2-((2,2-dimethylpropyl) (6-methylpyridin-2-yl)carbamoyl)-5-methoxyphenyl)piperidin-4-yl)methoxy)phenyl)-4-methoxybutanoic acid]", "activation at 1 µM": 96}, {"compound": "COc1cc(F)c(C(=O)N(CC(C)(C)C)c2cccc(C)n2)c(N2CCC(COc3cc(C(CC(=O)O)C4CC4)ccn3)CC2)c1", "note": "(stereo not shown) [Example 251, 3-cyclopropyl-3-(2-((1-(2-((2,2-dimethylpropyl)(6-methylpyridin-2-yl)carbamoyl)-3-fluoro-5-methoxyphenyl)piperidin-4-yl)methoxy)pyridin-4-yl)propanoic acid]", "activation at 1 µM": 91}, {"compound": "Cc1cccc(N(CC(C)(C)C)C(=O)c2ccc(C#N)cc2N2CCC(COc3cc(C(CC(=O)O)C4CC4)ccn3)CC2)n1", "note": "(stereo not shown) [Example 260, 3-(2-((1-(5-cyano-2-((2,2-dimethylpropyl)(6-methylpyridin-2-yl)carbamoyl)phenyl)piperidin-4-yl)methoxy)pyridin-4-yl)-3-cyclopropylpropanoic acid]", "activation at 1 µM": 89}, {"compound": "COc1cc(N2CCC(COc3cc(C(CC(=O)O)C4CC4)ccn3)CC2)c(C(=O)N(CC(C)(C)C)c2cc(C)cc(C)n2)cn1", "note": "(stereo not shown) [Example 284, 3-cyclopropyl-3-(2-((1-(5-((2,2-dimethylpropyl) (4,6-dimethylpyridin-2-yl)-carbamoyl)-2-methoxypyridin-4-yl)-piperidin-4-yl)-methoxy)pyridin-4-yl)propanoic acid]", "activation at 1 µM": 103}, {"compound": "COc1ccc(C(=O)N(CC2(F)CC2)c2ccccc2)c(N2CCC(COc3cc(C(CC(=O)O)C4CC4)ccn3)CC2)c1", "note": "(stereo not shown) [Example 189, 3-cyclopropyl-3-(2-((1-(2-(((1-fluorocyclopropyl)methyl)(phenyl)carbamoyl)-5-methoxyphenyl)piperidin-4-yl)methoxy)pyridin-4-yl)propanoic acid]", "activation at 1 µM": 89}, {"compound": "COc1ccc(C(=O)N(CC(C)(F)F)c2ccccn2)c(N2CCC(COc3cc(C(CC(=O)O)C4CC4)ccn3)CC2)c1", "note": "(stereo not shown) [Example 126, 3-cyclopropyl-3-(2-((1-(2-((2,2-difluoropropyl)(pyridin-2-yl)carbamoyl)-5-methoxyphenyl)piperidin-4-yl)methoxy)pyridin-4-yl)propanoic acid]", "activation at 1 µM": 99}, {"compound": "CCc1ccc(C(=O)N(C)c2ncco2)c(N2CCC(COc3cccc(C(CC(=O)O)C4CC4)c3)CC2)c1", "note": "(stereo not shown) [Example 57, 3-cyclopropyl-3-(3-((1-(5-ethyl-2-(methyl(1,3-oxazol-2-yl)carbamoyl)phenyl)piperidin-4-yl)methoxy)phenyl)propanoic acid]", "activation at 1 µM": 58}, {"compound": "COc1ccc(C(=O)N(CC2CC2)c2ccccn2)c(N2CCC(COc3cc(C(CC(=O)O)C4CC4)ccn3)CC2)c1", "note": "(single isomer, unassigned) [Example 141, 3-cyclopropyl-3-(2-((1-(2-((cyclopropylmethyl)(pyridin-2-yl)carbamoyl)-5-methoxyphenyl)piperidin-4-yl)methoxy)pyridin-4-yl)propanoic acid]", "activation at 1 µM": 81}, {"compound": "COc1ccc(C(=O)N(CC2(C)CC2)c2ccccn2)c(N2CCC(COc3cc(C(CC(=O)O)C4CC4)ccn3)CC2)c1", "note": "(stereo not shown) [Example 114, 3-cyclopropyl-3-(2-((1-(5-methoxy-2-(((1-methylcyclopropyl)methyl)(pyridin-2-yl)carbamoyl)phenyl)piperidin-4-yl)methoxy)pyridin-4-yl)propanoic acid]", "activation at 1 µM": 98}, {"compound": "COc1ccc(C(=O)N(CC(C)(C)C)c2cccnn2)c(N2CCC(COc3cc(C(CC(=O)O)C4CC4)ccn3)CC2)c1", "note": "(stereo not shown) [Example 179, 3-cyclopropyl-3-(2-((1-(2-((2,2-dimethylpropyl)(pyridazin-3-yl)carbamoyl)-5-methoxyphenyl)piperidin-4-yl)methoxy)pyridin-4-yl)propanoic acid]", "activation at 1 µM": 84}, {"compound": "COc1ccc(C(=O)N(CC(F)F)c2nccc(C)n2)c(N2CCC(COc3cc(C(CC(=O)O)C4CC4)ccn3)CC2)c1", "note": "(stereo not shown) [Example 172, 3-cyclopropyl-3-(2-((1-(2-((2,2-difluoroethyl)(4-methylpyrimidin-2-yl)carbamoyl)-5-methoxyphenyl)piperidin-4-yl)methoxy)pyridin-4-yl)propanoic acid]", "activation at 1 µM": 97}, {"compound": "COc1ccc(C(=O)N(CC(C)(C)C)c2cccc(C)n2)c(N2CCC(COc3cccc(C(CC(=O)O)OC)c3)CC2)c1", "note": "(stereo not shown) [Example 269, 3-(3-((1-(2-((2,2-dimethylpropyl)(6-methylpyridin-2-yl)carbamoyl)-5-methoxyphenyl)piperidin-4-yl)methoxy)phenyl)-3-methoxypropanoic acid]", "activation at 1 µM": 103}, {"compound": "COc1ccc(C(=O)N(CCC(C)C)c2ccccn2)c(N2CCC(COc3cc(C(CC(=O)O)C4CC4)ccn3)CC2)c1", "note": "(stereo not shown) [Example 159, 3-cyclopropyl-3-(2-((1-(5-methoxy-2-((3-methylbutyl)(pyridin-2-yl)carbamoyl)phenyl)piperidin-4-yl)methoxy)pyridin-4-yl)propanoic acid]", "activation at 1 µM": 103}, {"compound": "COc1ccc(C(=O)N(CC(C)(C)C)c2cc(C)nc(C)n2)c(N2CCC(COc3cc(C(CC(=O)O)C4CC4)ccn3)CC2)c1", "note": "(stereo not shown) [Example 228, 3-cyclopropyl-3-(2-((1-(2-((2,2-dimethylpropyl) (2,6-dimethylpyrimidin-4-yl)carbamoyl)-5-methoxyphenyl)piperidin-4-yl)methoxy)pyridin-4-yl)propanoic acid]", "activation at 1 µM": 99}, {"compound": "COc1ccc(C(=O)N(CC(C)C)c2cccnc2OC)c(N2CCC(COc3cc(C(CC(=O)O)C4CC4)ccn3)CC2)c1", "note": "(stereo not shown) [Example 136, 3-cyclopropyl-3-(2-((1-(5-methoxy-2-((2-methoxypyridin-3-yl)(2-methylpropyl)carbamoyl)phenyl)piperidin-4-yl)methoxy)pyridin-4-yl)propanoic acid]", "activation at 1 µM": 95}]}]}
